The values below come from patent EP0819380A1, “Bacteriocidal, antibacterial and bacteriostatic composition” (priority 1996, dated 1998).

Where two headings read alike, the source gives them in different places.

Series [1] has as its system influenza virus type B (FluV-B, strain B/Lee/40). In kind it is cell-based.
Series [2] relates to herpes simplex I (HSV-1, strain VRIII). As to the kind of experiment: Inactivation of herpes simplex I (viral infectivity titer, CPE in Vero cells). The series is classed as cell-based. Conditions: for Viral infectivity titer when contacted for an hour (TCID50/25 µl): room temperature, composition 0.5% butyl p-oxybenzoate.
Series [3] has as its system mice. The conditions noted are these: p.o.; cited from earlier work.
Series [4] deals with Type HIV-1 (LAI strain). As to the kind of experiment: Inactivation of HIV (infectivity titer in MT-4 cells). The conditions noted are these: summary of Table 6, concentration-dependent. In kind it is cell-based.
The mark [5] stands for this setting: Composition : Viral solution 1 : 4, 1 hour.
[6] abbreviates: Composition : Viral solution 1 : 9, 1 hour.
The mark [7] stands for this setting: Composition : Viral solution 1 : 99, 1 hour.
The mark [8] stands for this setting: mixing ratio 1:9, Contact Time 0 minute.
[9] abbreviates: mixing ratio 1:9, Contact Time 5 minutes.
[10] abbreviates: mixing ratio 1:9, Contact Time 15 minutes.
Where [11] appears, read: mixing ratio 1:9, Contact Time 30 minutes.
[12] abbreviates: mixing ratio 1:9, Contact Time 1 hour.

`CCO` [70% Ethanol, Ethanol, reference compound]: the “Viral infectivity titer for various contact time periods (TCID50/25 µl)” value in series [1] (0.5 h) is on record as 3.2 x 10^3 TCID50/25 µl; in series [1] (1 h), 5.6 x 10^3 TCID50/25 µl; in series [2] (setting [8]), 3.2 x 10^4 TCID50/25 µl; in series [2] (setting [9]), 3.2 x 10^4 TCID50/25 µl; in series [2] (setting [10]), 1.8 x 10^4 TCID50/25 µl; in series [2] (setting [11]), 1.8 x 10^3 TCID50/25 µl. For the same compound, the “Viral infectivity titer for various contact time periods (TCID50/25 µl)” value in series [2] (setting [12]) was 5.6 x 10^4 TCID50/25 µl. The “Viral infectivity titer when contacted for an hour (TCID50/25 µl)” value in series [1] (1 h) is reported as 3.2 x 10^3 TCID50/25 µl; in series [2] (setting [5]), 3.2 x 10^4 TCID50/25 µl; in series [2] (setting [6]), 5.6 x 10^4 TCID50/25 µl; in series [2] (setting [7]) it was 1.0 x 10^5 TCID50/25 µl.
On to `CCCCOC(=O)c1ccc(O)cc1` [butyl ester, butyl p-oxybenzoate], for which the “Viral infectivity titer when contacted for an hour (TCID50/25 µl)” value is 3.2 x 10^3 TCID50/25 µl in series [1] (FluV-B, Composition : Viral solution 1 : 99, 1 hour, room temperature, composition 0.5% butyl p-oxybenzoate); ≤3.2 x 10^1 TCID50/25 µl in series [2] (setting [5]); ≤3.2 x 10^0 TCID50/25 µl in series [2] (setting [6]); 1.8 x 10^4 TCID50/25 µl in series [2] (setting [7]). Further, in series [3], the “Acute toxicity (LD-50)” value is reported as 17000 mg/kg. Besides, the “Viral infectivity titer for various contact time periods (TCID50/25 µl)” value in series [2] (setting [8]) is recorded as 5.6 x 10^3 TCID50/25 µl; in series [2] (setting [9]), 3.2 x 10^0 TCID50/25 µl; in series [2] (setting [10]) it was 3.2 x 10^0 TCID50/25 µl; in series [2] (setting [11]), 3.2 x 10^0 TCID50/25 µl; in series [2] (setting [12]), 3.2 x 10^0 TCID50/25 µl.
In the case of `CCOC(=O)c1ccc(O)cc1` [ethyl ester, ethyl p-oxybenzoate], the “inactivation effect against HIV” value in series [4] was “potent inactivation effect”. In addition, the “Acute toxicity (LD-50)” value in series [3] is listed as 5000 mg/kg.
In the case of `CCCOC(=O)c1ccc(O)cc1` [propyl ester, Propyl p-oxybenzoate], the “Acute toxicity (LD-50)” value in series [3] is reported as 8000 mg/kg.
